What was measured:
Test in all cases: bioluminescence peak-height (V0) kinetics
Luc2 [1] = target: T1, Luc2 (Photinus pyralis, UniProt P08659); assay type: biochemical; conditions: Mg-ATP, O2; assay details in supplement; read-out: Km (μM) ^4
T1 construct: mammalian codon optimized P. pyralis Luc; pGEX-6P-2, E. coli BL21(DE3)pLysS, GST removed, N-terminal GlyProLeuGlySer kept; Mut51 from pET28a (His-tag)
Description: (§1) bioluminescence peak-height (V0) kinetics on Luc2

[2] = tested on: T2, CBR (tested as CBR2, CBR2opt); assay type: biochemical; conditions: Mg-ATP, O2; assay details in supplement; read-out: Km (μM) ^4
T2 construct: mouse codon optimized; pGEX-6P-2, E. coli BL21(DE3)pLysS, GST removed, N-terminal GlyProLeuGlySer kept
Description: bioluminescence peak-height (V0) kinetics on CBR (tested as CBR2, CBR2opt)

Fluc_red = target: T3, Fluc_red (Photinus pyralis, UniProt P08659, S284T/E354R/D357Y, form not given); assay type: biochemical; conditions: Mg-ATP, O2; assay details in supplement; read-out: Km (μM) ^4
T3 construct: pET16b, His-tag
Description: bioluminescence peak-height (V0) kinetics on Fluc_red

Luc2 [3] = target: T4, Luc2 (Photinus pyralis, UniProt P08659, F243M/S347G, form not given); assay type: biochemical; conditions: Mg-ATP, O2; assay details in supplement; Mut51, His-tagged; read-out: Km (μM) ^4
T4 construct: mammalian codon optimized P. pyralis Luc; pGEX-6P-2, E. coli BL21(DE3)pLysS, GST removed, N-terminal GlyProLeuGlySer kept; Mut51 from pET28a (His-tag)
Description: as §1

PLR3 = tested on: T5, PLR3; assay type: biochemical, Photinus pyralis / Luciola italica; conditions: Mg-ATP, O2; assay details in supplement; read-out: Km (μM) ^4
T5 construct: G246A/F250H in mammalian codon optimized PLR1; pGEX-6P-2, N-terminal GlyProLeuGlySer kept
Description: bioluminescence peak-height (V0) kinetics on PLR3

T1 sequence (P08659 whole entry): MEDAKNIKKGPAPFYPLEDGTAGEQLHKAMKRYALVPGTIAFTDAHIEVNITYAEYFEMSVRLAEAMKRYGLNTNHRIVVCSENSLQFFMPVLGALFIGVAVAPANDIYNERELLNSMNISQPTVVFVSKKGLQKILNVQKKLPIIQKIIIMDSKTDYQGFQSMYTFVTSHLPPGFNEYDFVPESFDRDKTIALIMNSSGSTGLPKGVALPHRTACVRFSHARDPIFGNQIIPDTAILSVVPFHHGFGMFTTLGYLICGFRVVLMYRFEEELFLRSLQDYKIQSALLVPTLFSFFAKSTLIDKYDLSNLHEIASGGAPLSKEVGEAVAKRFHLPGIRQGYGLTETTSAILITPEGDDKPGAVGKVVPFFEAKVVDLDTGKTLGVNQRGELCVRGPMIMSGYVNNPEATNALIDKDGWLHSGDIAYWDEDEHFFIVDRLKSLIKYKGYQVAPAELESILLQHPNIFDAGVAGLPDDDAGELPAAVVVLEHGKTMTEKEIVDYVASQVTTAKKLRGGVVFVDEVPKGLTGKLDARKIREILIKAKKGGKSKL
T3 sequence (P08659 whole entry S284T/E354R/D357Y, form open): as the sequence (P08659 whole entry) above, with S284T, E354R, D357Y counted along it
T4 sequence (P08659 whole entry F243M/S347G, form open): as the sequence (P08659 whole entry) above, with F243M, S347G counted along it

| Km (Luc2 [1]) | Km [2] | Compound | also measured |
| --- | --- | --- | --- |
| 0.61 ± 0.2 µM |  | O=C(O)[C@H]1CSC(c2nc3cc4c(cc3s2)NCC4)=N1 [CycLuc1, (S)-2-(6,7-dihydro-5H-thiazolo[4,5-f]indol-2-yl)-4,5-dihydrothiazole-4-carboxylic acid] |  |
| 0.13 ± 0.05 µM | 0.9 ± 0.08 µM | O=C(O)[C@H]1CSC(/C=C/c2nc3ccc(O)cc3s2)=N1 [iLH2, (S,E)-2-(2-(6-hydroxybenzo[d]thiazol-2-yl)vinyl)-4,5-dihydrothiazole-4-carboxylic acid] | Km (Fluc_red): 0.17 ± 0.05 µM |
| 44 ± 11 µM |  | O=C(O)[C@H]1CSC(c2nc3c(Br)cc(O)cc3s2)=N1 [4′-BrLuc, (S)-2-(4-bromo-6-hydroxybenzo[d]thiazol-2-yl)-4,5-dihydrothiazole-4-carboxylic acid] | Km (Luc2 [3]): 2.3 ± 0.2 µM |
| 1.5 ± 0.2 µM |  | Nc1cnc2c(ccc3nc(C4=N[C@@H](C(=O)O)CS4)sc32)c1 [NH2-QLH2] |  |
| 1.8 ± 0.6 µM |  | O=C(O)[C@H]1CSC(c2nc3ccc4cc(O)cnc4c3s2)=N1 [OH-QLH2] | Km (PLR3): 1.6 ± 0.1 µM |
|  | 0.93 ± 0.13 µM | O=C(O)[C@H]1CSC(c2nc3ccc4cc(O)ccc4c3s2)=N1 [OH-NpLH2] |  |
| 3.3 ± 0.6 µM | 0.8 ± 0.1 µM | Nc1ccc2c(ccc3nc(C4=N[C@@H](C(=O)O)CS4)sc32)c1 [NH2-NpLH2] |  |
|  | 9.5 ± 1.3 µM | Nc1ccc2nc(C3=N[C@@H](C(=O)O)CS3)sc2c1 [NH2-LH2, (S)-2-(6-aminobenzo[d]thiazol-2-yl)-4,5-dihydrothiazole-4-carboxylic acid] |  |

| Compound | Km (Luc2 [1]) | Km [2] | also measured |
| --- | --- | --- | --- |
| O=C(O)[C@H]1CSC(c2nc3ccc(O)cc3s2)=N1 [LH2, (S)-2-(6-hydroxybenzo[d]thiazol-2-yl)-4,5-dihydrothiazole-4-carboxylic acid] |  | 250 ± 24 µM |  |
